In article PMC10762035, “Molecular basis of human trace amine-associated receptor 1 activation” (Nature Communications, 2024):
Positions count from the first letter of the chain named. Where “and” joins values, the source holds several entries; their conditions need not be identical. Equal entries are not always repeated. Where two headings read alike, the source gives them in different places.

Legend:
Format in all cases: cell-based
hTA1 [1] = molecular target: T1, hTA1 (Homo sapiens, UniProt Q96RJ0); test: GloSensor cAMP accumulation assay, concentration response, wild-type hTA1 in transfected HEK293T cells; conditions: for Emax: HEK-293T; for Dose-response curves for asenapine vs endogenous trace amines / Normalized Luminescence Counts for WT hTA1: log[Compound]; for Dose-response curves for asenapine vs endogenous trace amines: replicate values (N=2); for Normalized Luminescence Counts for WT hTA1: replicate wells;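 as to all read-outs here: luminescence read after 30 min compound exposure at room temperature in cells preloaded with D-Luciferin, reflecting Gs-driven cAMP rise, efficacy scaled to the maximal β-PEA response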
T1 construct: expressed in transfected cells; host or cells: HEK293T
T1 sequence (Q96RJ0 1-339): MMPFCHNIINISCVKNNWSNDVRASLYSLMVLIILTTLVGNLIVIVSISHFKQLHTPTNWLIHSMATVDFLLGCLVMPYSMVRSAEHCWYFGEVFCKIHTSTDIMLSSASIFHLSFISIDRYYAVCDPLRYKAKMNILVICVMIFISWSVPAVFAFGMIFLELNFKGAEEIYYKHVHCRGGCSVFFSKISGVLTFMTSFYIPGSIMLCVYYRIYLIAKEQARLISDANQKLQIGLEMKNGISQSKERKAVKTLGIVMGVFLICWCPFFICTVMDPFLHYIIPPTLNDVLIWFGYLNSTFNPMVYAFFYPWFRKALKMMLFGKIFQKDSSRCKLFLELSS

hTA1 T271N = molecular target: T2, hTA1 T271N (Homo sapiens, UniProt Q96RJ0, T271N); test: GloSensor cAMP accumulation assay, T271N mutant
T2 construct: expressed in transfected cells; host or cells: HEK293T
T2 sequence (Q96RJ0 1-339 T271N): T1 sequence (Q96RJ0 1-339) with T271N

hTA1 [2] = molecular target: T1, hTA1; test: Screen of 89 aminergic compounds at 10 µM, cAMP accumulation in HEK293T cells; conditions: 10 µM of compound; HEK293T; threshold log2-fold change of 2;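 also: HEK293T cells co-transfected with hTA1 and GloSensor cAMP reporter, cAMP accumulation detected by luminescence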
hTA1 R83H = molecular target: T3, hTA1 R83H (Homo sapiens, UniProt Q96RJ0, R83H); test: GloSensor cAMP accumulation assay, R83H mutant; conditions: R83H;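 also: cells transiently co-expressing hTA1 and a cAMP GloSensor, luminescence read 30 min after agonist addition at room temperature, concentration–response fitted by non-linear regression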
T3 construct: expressed in transfected cells; host or cells: HEK293T
T3 sequence (Q96RJ0 1-339 R83H): T1 sequence (Q96RJ0 1-339) with R83H

CN1CC2c3ccccc3Oc3ccc(Cl)cc3C2C1 (stereo not shown) [asenapine]
Emax (hTA1 [1]; WT, Avg of the experiment means, read-out: Emax values, Avg): 88.7% | Emax (hTA1 [1]; WT, Mean of one experiment (3 replicates), read-out: Emax values): 91% | Emax (hTA1 [1]; wt hTA1, relative to β-PEA, read-out: Emax): 88.7% | Emax values, Avg (hTA1 [1]; WT, Asenapine, average of the two experiments): 88.71 | Emax values, Mean (hTA1 [1]; WT, Asenapine, mean of one experiment, 3 replicates): 91.0389 and 86.3756 | Emax values (hTA1 [1]; WT, Mean of one experiment (3 replicates)): 86.3756 | EC50 (hTA1 [1]; WT, Mean of one experiment (3 replicates), read-out: pEC50 values (converted)): 279 nM | Dose-response curves for asenapine vs endogenous trace amines (hTA1 [1]; M = -5): 79.6771 and 96.2124 and 92.251 and 83.6538 and 87.8328 and 80.7895 | Normalized Luminescence Counts for WT hTA1 (hTA1 [1]; M = -5): 83.6538 and 87.8328 and 80.7895 and 79.6771 and 96.2124 and 92.251 | Dose-response curves for asenapine vs endogenous trace amines (hTA1 [1]; M = -5.522): 74.87 and 93.5418 and 84.1725 and 79.0052 and 76.9861 and 71.9618 | Normalized Luminescence Counts for WT hTA1 (hTA1 [1]; M = -5.522): 79.0052 and 76.9861 and 71.9618 and 74.87 and 93.5418 and 84.1725 | Dose-response curves for asenapine vs endogenous trace amines (hTA1 [1]; M = -6): 68.5274 and 68.3939 and 69.9517 and 72.9948 and 71.8209 and 62.9463 | Normalized Luminescence Counts for WT hTA1 (hTA1 [1]; M = -6): 72.9948 and 71.8209 and 62.9463 and 68.5274 and 68.3939 and 69.9517 | Dose-response curves for asenapine vs endogenous trace amines (hTA1 [1]; M = -6.522): 47.5189 and 49.5663 and 40.1525 and 38.2946 and 48.7657 and 45.4788 | Normalized Luminescence Counts for WT hTA1 (hTA1 [1]; M = -6.522): 38.2946 and 48.7657 and 45.4788 and 47.5189 and 49.5663 and 40.1525 | Dose-response curves for asenapine vs endogenous trace amines (hTA1 [1]; M = -7): 27.8234 and 34.8114 and 20.9244 and 18.9489 and 23.9262 and 21.7193 | Normalized Luminescence Counts for WT hTA1 (hTA1 [1]; M = -7): 18.9489 and 23.9262 and 21.7193 and 27.8234 and 34.8114 and 20.9244 | Dose-response curves for asenapine vs endogenous trace amines (hTA1 [1]; M = -7.522): 9.085 and 11.3326 and 6.214 and 4.299 and 6.271 and 7.5856 | Normalized Luminescence Counts for WT hTA1 (hTA1 [1]; M = -7.522): 4.299 and 6.271 and 7.5856 and 9.085 and 11.3326 and 6.214 | Dose-response curves for asenapine vs endogenous trace amines (hTA1 [1]; M = -8): 5.413 and 6.147 and 6.2585 and 3.876 and 4.862 and 2.139 | Normalized Luminescence Counts for WT hTA1 (hTA1 [1]; M = -8): 3.876 and 4.862 and 2.139 and 5.413 and 6.147 and 6.2585 | Dose-response curves for asenapine vs endogenous trace amines (hTA1 [1]; M = -8.522): 0.6725 and 1.273 and 1.229 and 1.059 and 0.777 and -0.209 | Normalized Luminescence Counts for WT hTA1 (hTA1 [1]; M = -8.522): 1.059 and 0.777 and -0.209 and 0.6725 and 1.273 and 1.229 | Dose-response curves for asenapine vs endogenous trace amines (hTA1 [1]; M = -9): -0.2399 and 0.5835 and -0.9298 and -0.4438 and -0.06817 and 0.0727 | Normalized Luminescence Counts for WT hTA1 (hTA1 [1]; M = -9): -0.4438 and -0.06817 and 0.0727 and -0.2399 and 0.5835 and -0.9298 | Dose-response curves for asenapine vs endogenous trace amines (hTA1 [1]; M = -9.522): -1.597 and -0.5292 and -1.353 and -0.209 and -0.5377 and 0.777 | Normalized Luminescence Counts for WT hTA1 (hTA1 [1]; M = -9.522): -0.209 and -0.5377 and 0.777 and -1.597 and -0.5292 and -1.353 | Dose-response curves for asenapine vs endogenous trace amines (hTA1 [1]; M = -10): -0.6182 and -0.1064 and -0.8408 and -0.7725 and -0.5377 and -0.6786 | Normalized Luminescence Counts for WT hTA1 (hTA1 [1]; M = -10): -0.7725 and -0.5377 and -0.6786 and -0.6182 and -0.1064 and -0.8408 | Dose-response curves for asenapine vs endogenous trace amines (hTA1 [1]; M = -10.522): -0.9521 and -0.1509 and -1.197 and -0.8195 and -1.665 and -1.101 | Normalized Luminescence Counts for WT hTA1 (hTA1 [1]; M = -10.522): -0.8195 and -1.665 and -1.101 and -0.9521 and -0.1509 and -1.197 | Dose-response curves for asenapine vs endogenous trace amines (hTA1 [1]; M = -11): -0.9075 and -0.3289 and -0.7295 and -0.3969 and 0.2136 and 0.9649 | Normalized Luminescence Counts for WT hTA1 (hTA1 [1]; M = -11): -0.3969 and 0.2136 and 0.9649 and -0.9075 and -0.3289 and -0.7295 | Dose-response curves for asenapine vs endogenous trace amines (hTA1 [1]; M = -11.522): -0.863 and -0.01735 and -1.531 and -0.9603 and -0.5377 and -0.4908 | Normalized Luminescence Counts for WT hTA1 (hTA1 [1]; M = -11.522): -0.9603 and -0.5377 and -0.4908 and -0.863 and -0.01735 and -1.531 | Dose-response curves for asenapine vs endogenous trace amines (hTA1 [1]; M = -12): -1.108 and -0.6405 and -1.286 and -1.101 and -0.6786 and -1.477 | Normalized Luminescence Counts for WT hTA1 (hTA1 [1]; M = -12): -1.101 and -0.6786 and -1.477 and -1.108 and -0.6405 and -1.286 | Dose-response curves for asenapine vs endogenous trace amines (hTA1 [1]; M = -12.522): -1.575 and -1.241 and -2.02 and -0.5377 and -1.054 and -1.242 | Normalized Luminescence Counts for WT hTA1 (hTA1 [1]; M = -12.522): -0.5377 and -1.054 and -1.242 and -1.575 and -1.241 and -2.02 | EC50 (hTA1 [1]; wt hTA1, HEK293T, n=3, read-out: EC50): 274 nM | Emax values of Asenapine (hTA1 T271N; T271N, Mean of one experiment): 142.994 and 100.859 | EC50 (hTA1 T271N; T271N, Mean of one experiment, read-out: pEC50 values of Asenapine (converted)): 496 nM and 463 nM | EC50 (hTA1 T271N; T271N, n=2, read-out: EC50): 479 nM | Emax (hTA1 T271N; T271N, n=2, read-out: Span ± SEM (Emax normalized to β-PEA)): 122% | Emax (hTA1 T271N; T271N, relative to β-PEA, read-out: Emax): 122% | ΔEmax values (each mutant value - WT average), T271N, Mean (hTA1 T271N; hTA1 T271N mutant vs WT average, Figure 6B, each line is one experiment (3 replicates)): 54.2867 and 12.1519 | increase of signal over DMSO-treated controls (hTA1 activation) (hTA1 [2]): ≥ 4 fold | ΔpEC50 values (each mutant value - WT average), Mean (hTA1 R83H; Asenapine): -1.278 and -1.426 | Emax values, Mean (hTA1 R83H; Asenapine, per experiment, 3 replicates): 22.9611 and 11.3307 | EC50 (hTA1 R83H; Asenapine, per experiment, 3 replicates, read-out: pEC50 values Mean (converted)): 1640 nM and 2310 nM | EC50 (hTA1 R83H; n=2, read-out: EC50): 1950 nM | Emax (hTA1 R83H; n=2, read-out: Span ± SEM (Emax normalized to β-PEA)): 17.1 ± 5.82%
